In brackets after ≈: the same amount, converted by molar mass.
Assays:
[1] = tested on: S. aureus clinical strain 051N (MRSA); design: method as in earlier work; conditions: clinical isolate 051N (MRSA), nasal swab; cited from earlier work
[2] = tested on: S. aureus ATCC 33591 (MRSA); test: microbe, parasite or virus in culture
Source text: (§1) Clinical S. aureus strains were collected from patients with atopic dermatitis during their visits to the Outpatient Clinic and hospitalization in the Department of Dermatology, Venereology and Allergology at Medical University of Gdańsk (following the approval from the ethics committee, Approval Number NKBBN/242–477/2014). Reference strains of S. aureus ATCC 25923, S. aureus ATCC 33591, S. aureus ATCC 9144, and S. aureus ATCC 12598 were obtained from the American Type Culture Collection. All the strains were stored at − 80 °C in Roti®-Store cryo vials (Carl Roth GmbH, Karlsruhe, Germany) and before the tests were transferred into fresh Mueller–Hinton Medium (BioMaxima, Lublin, Poland) and incubated for 24 h at 37 °C. Subsequently, each bacterial inoculum was seeded on Mueller–Hinton agar plates (BioMaxima) and incubated again for 24 h. The cultures prepared in this way were used in further antimicrobial assays. Minimum inhibitory concentrations (MICs) were determined according to the Clinical and Laboratory Standards Institute recommendations. […] The experiments were conducted on 96-well microtiter plates, with a final volume of 100 μL. Additionally, in the case of daptomycin, the medium was supplemented with Ca^2+ (50 mg/L). Cell densities were adjusted spectrophotometrically (Multiskan™ GO Microplate Spectrophotometer, Thermo Scientific) at 600 nm. The MICs were taken as the lowest drug concentration at which a visible growth of the microorganisms was inhibited. Minimum biofilm eliminating concentrations (MBECs) were determined on 96-well flat-bottomed microtiter polystyrene plates with resazurin (7-hydroxy-3H-phenoxazin-3-one 10-oxide sodium salt) as a cell viability reagent. To do this, the plates were filled with 100 μL of the initial inoculums of bacteria (0.5 × 10^7 CFU/mL) in the Mueller–Hinton broth and incubated for 24 h at 37 °C. […] After 24 h of incubation, 20 μL of resazurin (4 mg/mL) was added to each well and the MBEC values were read. Minimum biofilm inhibitory concentrations (MBICs) were also determined on 96-well flat-bottomed microtiter polystyrene plates as described previously. To do this, 50 μL of the compounds in the concentration range, diluted MHB, were prepared. Subsequently, the 50 μL of the staphylococcal inoculums were added to reach the same density of bacteria as that in the MBEC assay. After 24 h of incubation at 37 °C, the wells were rinsed three times with PBS and the fresh medium (100 μL) with resazurin (0.6 mg/mL) was added. Then, after 1 h of incubation, MBICs were read. […] All experiments were conducted in triplicate.
(§2) Formation of the biofilm inside the PDMS flow chambers was performed using three peristaltic pumps working simultaneously (LP-pump, Kamush, Lipopharm, Poland) and sterile Tygon® 3350 silicone hoses (2.4 × 0.8 × 0.8 mm) with a length of 30 and 50 cm for inlet and outlet, respectively. Bacterial suspensions were prepared (0.5 × 10^7 CFU/mL) in sterile 50-mL test tubes, which were placed in a heating block at 37 °C. Before experiments, all channels were assessed for tightness and sterilized using a 70% 2-propanol solution (10 min, flow rate 1 mL/min) and rinsed with sterile PBS solution (10 min, flow 0.1 mL/min). The formation of biofilm inside the channels was divided into three stages: (1) adhesion—at this stage S. aureus suspensions were passed through the channels for 4 h at a flow rate of 0.1 mL/min; (2) rinsing—the previously used hoses were replaced with new sterile ones, and the channels were rinsed with sterile PBS solution for 10 min at a flow rate of 0.1 mL/min; (3) biofilm growth—after flushing the channels, the silicone hoses were placed in tubes with MHB medium, which was passed through the channels for 24 h at a flow rate of 0.1 mL/min. All experiments included growth and sterility controls.
(§3) This assay was conducted also on the S. aureus ATCC 25923 and S. aureus 33,591 (MRSA) strains.

[3] = tested on: S. aureus ATCC 25923; test: microbe, parasite or virus in culture
Source text: as §1, §2, §3

[4] = tested on: S. aureus clinical strain 009S; design: method as in earlier work; conditions: clinical isolate 009S, skin; cited from earlier work
[5] = tested on: S. aureus clinical strain 005S; design: method as in earlier work; conditions: clinical isolate 005S, skin; cited from earlier work
[6] = tested on: S. aureus clinical strain 060S; design: method as in earlier work; conditions: clinical isolate 060S, skin; cited from earlier work
[7] = tested on: S. aureus clinical strain 030N; design: method as in earlier work; conditions: clinical isolate 030N, nasal swab; cited from earlier work
[8] = tested on: S. aureus clinical strain 043SC (MRSA); design: method as in earlier work; conditions: clinical isolate 043SC (MRSA), skin of patient with furuncle folliculitis; cited from earlier work
[9] = tested on: S. aureus clinical strain 031S; design: method as in earlier work; conditions: clinical isolate 031S, skin; cited from earlier work
[10] = tested on: S. aureus clinical strain 004N (MRSA); design: method as in earlier work; conditions: clinical isolate 004N (MRSA), nasal swab; cited from earlier work
[11] = tested on: S. aureus clinical strain 015N (MRSA); design: method as in earlier work; conditions: clinical isolate 015N (MRSA), nasal swab; cited from earlier work
[12] = S. aureus ATCC 33591 (MRSA) biofilm treated under flow with Retro-Omiganan (half MBEC) for 24 h
[13] = S. aureus ATCC 33591 (MRSA) biofilm treated under flow with Retro-Omiganan (half MBEC) for 48 h
[14] = S. aureus ATCC 33591 (MRSA) biofilm treated under flow with Retro-Omiganan (half MBEC) for 72 h
[15] = S. aureus 25923 biofilm treated under flow with Retro-Omiganan (half MBEC) for 24 h
[16] = S. aureus 25923 biofilm treated under flow with Retro-Omiganan (half MBEC) for 48 h
[17] = S. aureus 25923 biofilm treated under flow with Retro-Omiganan (half MBEC) for 72 h
[18] = Staphylococcus aureus, ATCC25923, 0 h
[19] = Staphylococcus aureus, ATCC25923, 24 h
[20] = Staphylococcus aureus, ATCC25923, 48 h
[21] = Staphylococcus aureus, ATCC25923, 72 h

SMILES	Antimicrobial susceptibility (MIC) [1] [µg/mL]	MIC [2, 12] [µg/mL]	MIC [2, 13] [µg/mL]	MIC [2, 14] [µg/mL]	MIC ([2]; Staphylococcus aureus, 0 h) [µg/mL]	MIC ([2]; Staphylococcus aureus, 24 h) [µg/mL]	MIC [3, 15] [µg/mL]	MIC [3, 16] [µg/mL]	MIC [3, 17] [µg/mL]	MIC [3, 18] [µg/mL]	MIC [3, 19] [µg/mL]	MIC [3, 20] [µg/mL]	MIC [3, 21] [µg/mL]	Antimicrobial susceptibility (MIC) [5] [µg/mL]	Antimicrobial susceptibility (MIC) [6] [µg/mL]	Antimicrobial susceptibility (MIC) [7] [µg/mL]	Antimicrobial susceptibility (MIC) [8] [µg/mL]	Antimicrobial susceptibility (MIC) [9] [µg/mL]	Antimicrobial susceptibility (MIC) [10] [µg/mL]	Antimicrobial susceptibility (MIC) [11] [µg/mL]	also measured
CC(=O)O[C@H]1C[C@@]2(C)[C@@H](C[C@@H](O)[C@H]3[C@@]4(C)CC[C@@H](O)[C@@H](C)[C@@H]4CC[C@@]32C)/C1=C(\CCC=C(C)C)C(=O)O [Fusidic Acid]	0.125	≤ 0.25	≤ 0.25	≤ 0.25	≤ 0.25	≤ 0.25	≤ 0.25	≤ 0.25	≤ 0.25	≤ 0.25	≤ 0.25	≤ 0.25	≤ 0.25	0.0625	0.125	0.25	0.125	0.25	0.0625	0.125	MIC ([2]; Staphylococcus aureus, 48 h): ≤ 0.25 µg/mL; MIC ([2]; Staphylococcus aureus, 72 h): ≤ 0.25 µg/mL; Antimicrobial susceptibility (MIC) [4]: 2 µg/mL
CCCCCCCCCC(=O)N[C@@H](Cc1c[nH]c2ccccc12)C(=O)N[C@H](CC(N)=O)C(=O)N[C@@H](CC(=O)O)C(=O)N[C@@H]1C(=O)NCC(=O)N[C@@H](CCCN)C(=O)N[C@@H](CC(=O)O)C(=O)N[C@H](C)C(=O)N[C@@H](CC(=O)O)C(=O)NCC(=O)N[C@H](CO)C(=O)N[C@@H]([C@H](C)CC(=O)O)C(=O)N[C@@H](CC(=O)c2ccccc2N)C(=O)O[C@@H]1C [Daptomycin]	2	–	1 (≈ 0.617 µM)	–	–	–	–	–	–	–	–	–	–	4	0.125	0.125	1	0.125	2	2	MIC ([2]; S. aureus ATCC 33591 (MRSA), time 0 h (baseline, before peptide exposure)): 2 µg/mL (≈ 1.23 µM); MIC ([2]; Staphylococcus aureus, ATCC33591|MRSA, 0 h, S. aureus ATCC 33591 (MRSA), time 0 h (baseline, before peptide exposure)): 2 µg/mL (≈ 1.23 µM); MIC ([2]; Staphylococcus aureus, ATCC33591|MRSA, 24 h, S. aureus ATCC 33591 (MRSA) biofilm treated under flow with Omiganan (half MBEC) for 24 h): 2 µg/mL (≈ 1.23 µM); MIC ([2]; Staphylococcus aureus, ATCC33591|MRSA, 24 h, S. aureus ATCC 33591 (MRSA) biofilm treated under flow with Retro-Omiganan (half MBEC) for 24 h): 2 µg/mL (≈ 1.23 µM); MIC ([2]; Staphylococcus aureus, ATCC33591|MRSA, 48 h, S. aureus ATCC 33591 (MRSA) biofilm treated under flow with Omiganan (half MBEC) for 48 h): 2 µg/mL (≈ 1.23 µM); MIC ([2]; Staphylococcus aureus, ATCC33591|MRSA, 48 h, S. aureus ATCC 33591 (MRSA) biofilm treated under flow with Retro-Omiganan (half MBEC) for 48 h): 1 µg/mL (≈ 0.617 µM); MIC ([2]; Staphylococcus aureus, ATCC33591|MRSA, 72 h, S. aureus ATCC 33591 (MRSA) biofilm treated under flow with Omiganan (half MBEC) for 72 h): 2 µg/mL (≈ 1.23 µM); MIC ([2]; Staphylococcus aureus, ATCC33591|MRSA, 72 h, S. aureus ATCC 33591 (MRSA) biofilm treated under flow with Retro-Omiganan (half MBEC) for 72 h): 1 µg/mL (≈ 0.617 µM); MIC ([3]; Staphylococcus aureus, ATCC25923, 0 h, S. aureus 25923, time 0 h (baseline, before peptide exposure)): 2 µg/mL (≈ 1.23 µM); MIC ([3]; Staphylococcus aureus, ATCC25923, 24 h, S. aureus 25923 biofilm treated under flow with Omiganan (half MBEC) for 24 h): 2 µg/mL (≈ 1.23 µM); MIC ([3]; Staphylococcus aureus, ATCC25923, 24 h, S. aureus 25923 biofilm treated under flow with Retro-Omiganan (half MBEC) for 24 h): 1 µg/mL (≈ 0.617 µM); MIC ([3]; Staphylococcus aureus, ATCC25923, 48 h, S. aureus 25923 biofilm treated under flow with Omiganan (half MBEC) for 48 h): 2 µg/mL (≈ 1.23 µM); MIC ([3]; Staphylococcus aureus, ATCC25923, 48 h, S. aureus 25923 biofilm treated under flow with Retro-Omiganan (half MBEC) for 48 h): 1 µg/mL (≈ 0.617 µM); MIC ([3]; Staphylococcus aureus, ATCC25923, 72 h, S. aureus 25923 biofilm treated under flow with Omiganan (half MBEC) for 72 h): 2 µg/mL (≈ 1.23 µM); MIC ([3]; Staphylococcus aureus, ATCC25923, 72 h, S. aureus 25923 biofilm treated under flow with Retro-Omiganan (half MBEC) for 72 h): 1 µg/mL (≈ 0.617 µM); Antimicrobial susceptibility (MIC) [4]: 0.5 µg/mL
CC[C@H]1OC(=O)[C@H](C)[C@@H](O[C@H]2C[C@@](C)(OC)[C@@H](O)[C@H](C)O2)[C@H](C)[C@@H](O[C@@H]2O[C@H](C)C[C@H](N(C)C)[C@H]2O)[C@](C)(O)C[C@@H](C)C(=O)[C@H](C)[C@@H](O)[C@]1(C)O [Erythromycin]	–	–	–	–	–	–	≤ 0.25	≤ 0.25	≤ 0.25	≤ 0.25	≤ 0.25	≤ 0.25	≤ 0.25	–	–	0.25	> 512	–	–	32	–
CC1(C)S[C@@H]2[C@H](NC(=O)[C@H](N)c3ccccc3)C(=O)N2[C@H]1C(=O)O [Ampicillin]	0.25	> 128	> 128	> 128	> 128	> 128	0.5 (≈ 1.43 µM)	0.5 (≈ 1.43 µM)	0.5 (≈ 1.43 µM)	0.5 (≈ 1.43 µM)	0.5 (≈ 1.43 µM)	0.5 (≈ 1.43 µM)	0.5 (≈ 1.43 µM)	8	0.25	0.5	32	0.5	0.5	16	MIC ([2]; Staphylococcus aureus, 48 h): > 128 µg/mL; MIC ([2]; Staphylococcus aureus, 72 h): > 128 µg/mL

Source: article PMC12055641, “The Study of Antistaphylococcal Potential of Omiganan and Retro-Omiganan Under Flow Conditions” (Probiotics and Antimicrobial Proteins, 2024)
